The structures appear in SMILES notation. Structures can show the parent of a compound that is named as a salt.

Experiment [1] concerns the target T1, TDO in A172 cells (Homo sapiens, UniProt P48775).
T1 construct: endogenous in cells; host or cells: A172 cells
As to the kind of experiment: TDO cell-based assay, kynurenine production in A172 cells. The following applies: A 172; final concentration of the compound 10 μM; rate relative to culture without compound. In outline:
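A172 cells were preincubated with compound for 1 h, then given L-tryptophan (final 524 μM) for 24 h at 37 °C. Kynurenine was read at 460 nm after p-dimethylbenzaldehyde/TCA reagent, background-subtracted, and expressed as % of no-compound production.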

Experiment [2] deals with T2, IDO in A431 cells (Homo sapiens, UniProt P14902).
T2 construct: endogenous in cells; host or cells: A431 cells, IFN-γ stimulated
As to the kind of experiment: IDO cell-based assay, kynurenine production in IFN-γ stimulated A431 cells. The following applies: A-431, 24 h; final concentration of the compound 10 μM; rate relative to culture without compound. In outline:
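Kynurenine output was read by absorbance at 460 nm after p-dimethylbenzaldehyde/trichloroacetic acid reagent, background-corrected, and given as % of untreated wells. Before the read, cells in 178 μM L-tryptophan medium had 1 h compound preincubation, then 24 h IFN-γ stimulation (added as 100 ng/mL dilution).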

Experiment [3] addresses rhTDO (recombinant human TDO) (Homo sapiens, UniProt P48775). As to the kind of experiment: Enzyme assay using rhTDO (rate of kynurenine production). It counts as biochemical. The settings on record: 2 h; final concentration of the compound 10 μM; rate relative to reaction without compound; read-out: rhTDO-mediated kynurenine production. In outline: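 Kynurenine output, as percent of untreated control after background subtraction, read at 490 nm with p-dimethylbenzaldehyde following TCA quench and 15 min heating at 50 °C. Reaction: rhTDO with compound, 10 min preincubation then 120 min at 37 °C, started by 20 mM tryptophan stock, in phosphate/ascorbate/methylene blue/catalase.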

Experiment [4] concerns the target rhIDO (recombinant human IDO) (Homo sapiens, UniProt P14902). As to the kind of experiment: Enzyme assay using rhIDO (rate of kynurenine production). It is filed as biochemical. The settings on record: 2 h; final concentration of the compound 10 μM; rate relative to reaction without compound; read-out: rhIDO-mediated kynurenine production. In outline:
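Kynurenine formation, expressed as % of uncompounded reaction after background subtraction, was read by absorbance at 490 nm following TCA stop, 50 °C hydrolysis and Ehrlich-type p-dimethylbenzaldehyde staining. Recombinant human IDO with ascorbate/methylene blue/catalase was pre-exposed to compound 10 min, then reacted 120 min at 37 °C after adding 2 mM tryptophan stock.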

T2 sequence (P14902 whole entry): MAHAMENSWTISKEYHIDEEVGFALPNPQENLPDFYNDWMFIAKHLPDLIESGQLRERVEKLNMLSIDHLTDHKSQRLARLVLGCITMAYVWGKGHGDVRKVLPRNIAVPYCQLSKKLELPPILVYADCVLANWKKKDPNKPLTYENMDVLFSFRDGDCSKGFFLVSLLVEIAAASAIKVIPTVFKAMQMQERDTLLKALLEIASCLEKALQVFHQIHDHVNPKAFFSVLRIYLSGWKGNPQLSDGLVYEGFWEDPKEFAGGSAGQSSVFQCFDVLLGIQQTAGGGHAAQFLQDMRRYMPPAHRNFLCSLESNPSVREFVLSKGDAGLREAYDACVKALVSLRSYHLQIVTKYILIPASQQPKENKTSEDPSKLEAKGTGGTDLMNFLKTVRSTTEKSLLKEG
rhIDO (recombinant human IDO), sequence (P14902 whole entry): as above
T1 sequence (P48775 whole entry): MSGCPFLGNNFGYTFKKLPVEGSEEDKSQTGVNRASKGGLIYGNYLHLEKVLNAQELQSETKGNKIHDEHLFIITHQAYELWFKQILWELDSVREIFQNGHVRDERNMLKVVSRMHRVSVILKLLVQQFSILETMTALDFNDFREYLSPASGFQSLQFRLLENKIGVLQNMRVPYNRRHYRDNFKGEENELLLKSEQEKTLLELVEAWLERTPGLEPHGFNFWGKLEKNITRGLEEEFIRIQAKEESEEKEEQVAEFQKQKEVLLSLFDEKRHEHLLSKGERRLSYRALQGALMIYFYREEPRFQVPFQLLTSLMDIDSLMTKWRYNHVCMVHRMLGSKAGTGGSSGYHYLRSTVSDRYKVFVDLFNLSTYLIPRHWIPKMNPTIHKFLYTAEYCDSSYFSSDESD
rhTDO (recombinant human TDO), sequence (P48775 whole entry): as above

`Fc1ccc(CN2CN=C(SCc3ccc(Br)cc3CSC3=NCN(Cc4ccc(F)c(Cl)c4)CN3)NC2)cc1Cl` [Compound 144, 6,6′-(((4-Bromo-1,2-phenylene)bis(methylene))bis(sulfanediyl))bis(3-(3-chloro-4-fluorobenzyl)-1,2,3,4-tetrahydro-1,3,5-triazine)]: the remaining activity at 10 µM in experiment [1] was determined as 18%; in experiment [2], 6%; in experiment [3], 19%; in experiment [4], 15%.
The like results for `N/C(=N\c1ccc(F)c(Cl)c1)SCc1ccc(F)cc1CS/C(N)=N/c1ccc(F)c(Cl)c1` [Compound 129, (4-Fluoro-1,2-phenylene)bis(methylene) (E,E)-bis(N′-(3-chloro-4-fluorophenyl)carbamimidothioate) dihydrobromide] were, in that order, 14%, 7%, 8% and -2%.

These data come from patent US12209079B2 (GENERAL INCORPORATED ASSOCIATION PHARMA VALLEY PROJECT …, priority 2017, dated 2025).
